Measured values: patent US20240103005A1, “N-ACRYLOYLINDOLES AND METHODS OF USE” (The University of Hong Kong, priority 2022, published 2024)
“Also recorded” adds a separate entry of the source.

Assays:
HepG2 cells [1] = test: Confocal fluorescence imaging of HepG2 cells labeled with probe for different time intervals; type: cell-based; details: 10 μM; for cellular fluorescence intensity: 15, 30 and 60 min
Experimental: HepG2 Cells Labeled by NAIA-5 or IAA with Different Time Intervals for Imaging Experiments
HepG2 cells were plated on a 8-well Nunc Lab-Tek chambered slide system (ThermoFisher Scientific; 177402) and allowed to grow in complete medium at 37° C. with 5% CO2 to ca. 70% confluency. The cells were incubated with NAIA-5 and IAA (10 μM) respectively in complete medium for the indicated time interval, washed with PBS and then fixed by 4% paraformaldehyde in PBS at room temperature for 15 min. After washing with PBS, the fixed cells were permeabilized by PBS with 0.5 vol % Triton X-100 at room temperature for 30 min. The cells were then washed and incubated with a master mix solution containing CuSO4, THTPA, azide-fluor 545 and sodium ascorbate at final concentrations of 100, 500, 20 and 5000 μM respectively. After incubation in dark at room temperature for 1 h, the cells were washed with PBS and stained by Hoechst 33342 in PBS (final concentration=8.2 μM) at room temperature for 15 min. The cells were washed thrice with PBS and then imaged by confocal fluorescence microscopy. Hoechst 33342 was excited with a 405 nm diode laser, and emission was collected on a META detector between 371 and 507 nm. Fluor 545 was excited by a 561 nm diode laser and emission was collected on a META detector between 576 and 683 nm. Image analysis was performed by use of ImageJ. A region of interest (ROI) was created around individual cell, and cellular fluorescence intensity was measured. The reported average cellular fluorescence intensity was determined by averaging the measured intensity from 30 different cells from 3 different biological replicates/group. Statistical analyses were performed with a two-tailed Student's t-test (MS Excel).
(§1) Confocal fluorescence microscopy imaging was performed with a Zeiss laser scanning microscope 880 with a 20× water-immersion objective lens using ZEN 2.3 (Black Version) software (Carl Zeiss) with 3× magnification zoom-in. Hoechst 33342 was excited with a 405 nm diode laser, and emission was collected on a META detector between 371 and 507 nm. Fluor 545 was excited by a 561 nm diode laser and emission was collected on a META detector between 576 and 683 nm. Image analysis was performed by use of ImageJ. A region of interest (ROI) was created around individual cell, and cellular fluorescence intensity was measured. The reported average cellular fluorescence intensity was determined by averaging the measured intensity from 30 different cells from 3 different biological replicates/group. Statistical analyses were performed with a two-tailed Student's t-test (MS Excel).
To examine the underlying mechanism of better cysteine labeling in live cells by NAIA, we conducted confocal fluorescence imaging experiments on HepG2 cells treated with NAIA-5 and IAA respectively (both at 10 μM). After treatment for the indicated time intervals, the cells were washed with PBS, fixed by 4% paraformaldehyde in PBS and reacted with azide-fluor 545 through CuAAC. The stained cells were then washed with PBS and imaged by confocal fluorescence microscopy. […] In view of the fast and better labeling of reactive cysteines in live cells, we anticipate that NAIAs can be good candidates for capturing cysteines with dynamic changes in reactivity/modifications in cells. The ability of NAIAs to work nicely with confocal fluorescence microscopic imaging also illustrates their potential application as imaging probes for cellular cysteine reactivity. […]

HepG2 cells [2] = test: Imaging a decrease in free thiol level in HepG2 cells under oxidative stress; type: cell-based; details: 10 min; for fluorescence from labeling of free thiols, solvent control cells: 50 μM, same imaging parameters; for change in cellular fluorescence intensity upon H2O2 pretreatment: H2O2 0.5 or 1 mM 15 min, probe 50 μM
Experimental: Imaging a Decrease in Free Thiol Level in HepG2 Cells Under Oxidative Stress by NAIA-5 or IAA
HepG2 cells were plated on a 8-well Nunc Lab-Tek chambered slide system and allowed to grow in complete medium at 37° C. with 5% CO2 to ca. 70% confluency. The cells were then pretreated with solvent vehicles, H2O2 (0.5 or 1 mM) or H2O2 (1 mM)+NAC (5 mM) in complete medium for 15 min at 37° C. The cells were washed with PBS and incubated with NAIA-5 or IAA (50 μM) in complete medium for 10 min at 37° C. After that, the cells were washed with PBS and fixed by 4% paraformaldehyde in PBS at room temperature for 15 min. The fixed cells were washed with PBS, permeabilized by PBS with 0.5 vol % Triton X-100 at room temperature for 30 min, washed again with PBS and incubated with a master mix solution containing CuSO4, THTPA, azide-fluor 545 and sodium ascorbate at final concentrations of 100, 500, 20 and 5000 μM respectively. After incubation in dark at room temperature for 1 h, the cells were washed with PBS and stained by Hoechst 33342 in PBS (final concentration=8.2 μM) at room temperature for 15 min. The cells were washed thrice with PBS and then imaged in PBS by confocal fluorescence microscopy.
as §1
These attractive features indicate the good potential of using NAIs/NAIAs to trap cellular thiols in live cells that should allow better identification of cysteine oxidative modifications. To explore this potential application, we first sought to capture and image free thiols by NAIA-5 in live HepG2 cells by confocal fluorescence microscopy (FIG. 4A). HepG2 cells were pretreated with solvent vehicles, H2O2 or H2O2+N-acetyl cysteine (NAC), where NAC can scavenge H2O2 and relieve the oxidative stress in the HepG2 cells. After the pretreatment, the cells were incubated with NAIA-5 or IAA (50 μM) for 10 min to ligand and snap-shot free cellular thiols. […]

[3] = Selectivity for reacting with Cys over other amino acids (LC-MS); type: physicochemical; details: compound 10 μM, amino acid 30 μM (3 equiv.), 30 min, PBS/MeOH 4:1
Experimental: Selectivity of NAI for Reacting with Cys Over Other Amino Acids
Stock solution of NAIA-4 and NAIA-5, respectively, in DMSO was diluted by PBS/MeOH solution mixture (4:1, v/v; 500 μL), reaching final concentration of 10 μM. Stock solution of amino acid in DMSO was then freshly prepared, and added to the compound solution at final concentration of 30 μM. The solution mixture was incubated at room temperature for 30 min. After that, an aliquot of the reaction mixture (10 μL) was sent for LC-MS analysis. Selected ion chromatograms, with m/z=325 corresponding to [NAIA-4+H]^+ or [NAIA-5+H]^+, were extracted and analyzed by integrating the area under curve.
As fast-reacting probes are often susceptible to hydrolysis, we sought to investigate the aqueous stability of NAIA-C5 amide. […] Taking the excellent reaction kinetics and a mere 14% degradation in 30 min into account, NAIA-C5 amide was considered to be a useful tool in cysteine profiling (FIG. 17C and FIG. 17F).

Row | Compound | labeling of cytosolic and nuclear proteins (colocalization with Hoechst channel) (HepG2 cells [1]) | cellular fluorescence intensity (HepG2 cells [1]) | fluorescence from labeling of free thiols, solvent control cells (HepG2 cells [2]) | change in cellular fluorescence intensity upon H2O2 pretreatment (HepG2 cells [2]) | selectivity toward cysteine over other amino acids [3] | cellular permeability (HepG2 cells [1]; inferred from live-cell imaging)
1 | C#CCCCCNC(=O)CI [IAA, N-Hex-5-ynyl-2-iodoacetamide, reference compound] | lower Manders' colocalization coefficient | much weaker fluorescence at 15 min | almost no fluorescence can be detected in IAA-labeled cells | cannot see statistically significant changes in fluorescence intensity | undesired reactivity with serine and lysine | 
2 | C#CCCCCNC(=O)COc1ccc2c(ccn2C(=O)C=C)c1 [NAIA-5] | good labeling of proteins in both cytosol and nucleus | Significantly higher fluorescence intensities were found in cells treated with NAIA-5 than IAA | strong fluorescence from NAIA-5 labeling | H2O2 dose-dependent decrease in cellular fluorescence intensity | excellent selectivity toward cysteine over other amino acids; also recorded: Significant decreases in NAIA-4 and NAIA-5 levels were only found in the solution mixture with N-acetyl-L-cysteine methyl ester | good cellular permeability
